According to PubChem BioAssay AID2305 (GlaxoSmithKline (GSK), 2010):
“And” between values parts separate entries of the source, which are not always exact repeats. Equal entries are not always repeated.

Test system: P. falciparum 3D7 growth, pLDH absorbance
Assay: P. falciparum 3D7 growth inhibition, dose response, strain 3D7 (AID 2305)

| SMILES | IC50 |
| --- | --- |
| O=C(NC1CCN(Cc2ccccc2)CC1)c1cc(-c2ccncc2)c(-c2ccc(Cl)c(O)c2)o1 | 410 nM |
| Cc1cc(F)ccc1-c1nc(NCCCN2CCCC2=O)nc2c1ccc(=O)n2-c1c(F)cccc1F | 1020 nM |
| Clc1ccccc1OCc1ccccn1 | 990 nM |
| Clc1ccc(-c2cc(-c3csc(Nc4ccncc4)n3)on2)cc1 | 130 nM |
| CCN1C(=O)C(CC(=O)Nc2cccc(Cl)c2)N(Cc2ccc(OC)c(OC)c2)C1=S (stereo not drawn) | 610 nM |
| CCNc1cc(C(=O)N[C@@H](Cc2ccccc2)[C@H](O)CNC2(C(C)C)CCC2)cc(N2CCCCS2(=O)=O)c1 | 680 nM |
| OCC1CCN(Cc2ccc(-c3cccc(-c4nc5ccc(F)cc5[nH]4)c3)cc2)CC1 | 910 nM |
| CC[C@H]1CN2CCc3cc(OC)c(OC)cc3[C@@H]2C[C@@H]1CC1=NCCc2c1[nH]c1ccc(OCc3ccccc3)cc21 | 770 nM |
| COc1ccc(OC)c(C=CC(=O)NC2CCC(CN3CCC(c4c[nH]c5ccccc45)CC3)CC2)c1 (stereo not drawn) | 650 nM |
| O=C(NCCCCN1CCC(c2ccc3c(c2OCC2CC2)CCCC3)CC1)c1ccc(NC(=O)c2ccc(Cl)cc2)cc1 | 680 nM |
| CC(C)Nc1nc(NCCc2cnc[nH]2)nc(NCc2cccc3ccccc23)n1 | 1010 nM |
| CCCCCCCN1CC[C@@H](C[C@H](N)Cc2ccnc3ccc(OC)cc23)[C@@H](CC)C1 | 1070 nM |
| Cc1cc(NN=Cc2ccccc2[N+](=O)[O-])c2cccc(C)c2n1 | 550 nM |
| COc1ccc(CCCc2nc(N)nc(N)c2-c2ccc(Cl)cc2)cc1 | 40 nM |
| Cn1nccc1C(=O)NCCNCc1cccc(-c2csc(-c3nc4ccccc4[nH]3)c2)c1 | 840 nM |
| Cc1nnsc1C(=O)Nc1ccc(-c2ccc(-c3nc4ccccc4[nH]3)s2)cc1 | 820 nM |
| COc1ccc(-c2cccc(NC(=O)c3cccc(Cl)c3)c2)cc1CN1CCCC1 | 730 nM |
| CCn1c(Sc2ccc([N+](=O)[O-])c(C#N)c2)nnc1-c1ccc(Cl)cc1 | 1000 nM |
| COc1ccc(CC2(c3ccc(F)cc3)N=C(N)N(CCCc3ccc(F)c(F)c3)C2=O)cc1 (stereo not drawn) | 780 nM |
| Cc1ccc2c(=O)n(C)c(=O)n(C)c2n1 | 820 nM |
| CCOC(=O)c1ccc(-c2cnoc2-c2cc(CC)c(OC)cc2O)o1 | 280 nM |
| O=C(Nc1cccc(C(F)(F)F)c1)c1cccc(S(=O)(=O)NCC2CCCN(Cc3ccccc3)C2)c1 (stereo not drawn) | 1100 nM |
| CC(C)c1sc(-c2ccc(C(C)(C)C)cc2)nc1C(=O)NCCCN1CCCC1=O | 670 nM |
| c1ccc2[nH]c(-c3ccc(-c4ccc(CN5CCCCC5)cc4)cc3)nc2c1 | 750 nM |
| CCCC(C(=O)OCCN(CC)CC)(c1ccc(Cl)cc1)c1ccc(Cl)cc1 | 880 nM |

| SMILES | IC50 |
| --- | --- |
| Cc1nc(-c2ccc(-c3ccc(NC(=O)c4coc5ccc(N6C[C@@H](C)N(C)[C@@H](C)C6)cc45)cc3)c(C)c2)no1 | 770 nM |
| Cc1cc(-c2ccc3occ(CCN)c3c2)cnc1N | 880 nM |
| CC(CN1CCN(C)CC1)C(=O)Nc1ccc(-c2cccc(-c3nc4ccc(F)cc4[nH]3)c2)cc1 (stereo not drawn) | 520 nM |
| CC(=O)Nc1ccc(OCCCCN(Cc2ccccc2C(F)(F)F)c2ccc(C#N)c(C(F)(F)F)c2)cc1 | 1390 nM |
| Cc1cc(N[C@@H](Cc2ccccc2)C(=O)NCc2cccs2)nc(NCCc2ccccc2)n1 | 790 nM |
| COc1ccc(S(=O)(=O)NC2CCN(c3ccnc4cc(Cl)ccc34)C2)cc1 (stereo not drawn) | 490 nM |
| O=C(NCC1CCC(C(=O)NCCN2CCCCC2)CC1)c1ccc(O)c(-c2ccc(Cl)c(Cl)c2)c1 (stereo not drawn) | 1170 nM |
| Cc1cc(Nc2nc(NCc3cccnc3)nc3ccccc23)n[nH]1 | 850 nM |
| CC(=O)N(C)c1cccc(C(=O)Nc2ccc(-c3cccc(-c4nc5c(C)cccc5[nH]4)c3)cc2)c1 | 650 nM |
| CC(C)CCN=C(N)Nc1ccc(OCCCOc2ccc(NC(N)=NCCC(C)C)cc2)cc1 | 200 nM |
| CN1CCCC(CN2CCN(Cc3ccc(-c4ccc(-c5nc6ccc(F)cc6[nH]5)cc4)cc3)CC2)C1 (stereo not drawn) | 120 nM |
| COc1ccc(CNC(=O)NC2CCN(c3ccnc(Nc4cc(OC)c(OC)c(OC)c4)n3)C2)cc1 (stereo not drawn) | 950 nM |
| CCOC(=O)c1cn(CC)c2cc(N3CCCCCC3)c(F)cc2c1=O | 410 nM |
| FC(F)(F)c1ccc(NC(=S)N2CCC(CN3CCC(c4c[nH]c5ccccc45)CC3)CC2)cc1 | 660 nM |
| Cc1cccn2c(=O)c3cc(C(=O)NC4CCCCC4)c(=N)n(CCCn4ccnc4)c3nc12 | 750 nM |
| Nc1nc2ccc(CN(C=O)c3ccc(C(=O)N[C@@H](CCC(=O)O)C(=O)O)cc3)cc2c(=O)[nH]1 | 180 nM |
| O=C(Nc1ccc(Oc2ccccc2)cc1)NC1CCC(CN2CCC(c3c[nH]c4ccccc34)CC2)CC1 (stereo not drawn) | 570 nM |
| CCCN(CCC)C(=O)c1cc(C(=O)N[C@@H](Cc2ccccc2)[C@H](O)CNC2CC2)cc(N2CCCCS2(=O)=O)c1 | 160 nM |
| CCN1CCc2c1cc(C(=O)N[C@@H](Cc1ccccc1)[C@H](O)CNC(C)(C)c1cccc(C(F)(F)F)c1)cc2N1CCCCS1(=O)=O | 110 nM |
| CCC[C@@H]([C@@H](CC1CCCCC1)C(=O)N[C@@H](CCCCNS(C)(=O)=O)C(=O)Nc1nccs1)N(O)C=O | 80 nM |
| Cc1cc(-c2nc3ccc(N4CCN(C)CC4)cc3[nH]2)nn1Cc1cc(Cl)ccc1OCC(C)C | 880 nM |
| Nc1ccc(-c2ccc(NC(=O)Nc3cc(C(F)(F)F)ccc3F)cc2)cn1 | 660 nM |
| Oc1cccc(Nc2ccnc3cc(-c4ccccn4)ccc23)c1 | 740 nM |
| Cc1ccc2cc(NC(=O)CCCCCCCON3C(N)=NC(N)=NC34CCCCC4)ccc2n1 | 90 nM |
| Cc1ccc(NC(=O)c2ccc(N3CCC(c4ccccc4C)CC3)nc2)cc1 | 1400 nM |

| SMILES | IC50 |
| --- | --- |
| COc1ccccc1C1CC(c2ccc(Br)cc2)=NN1C(=O)c1ccccc1 (stereo not drawn) | 1110 nM |
| COc1cccc(-c2csc(C(=O)NCC3CCN(Cc4ccc(C(C)C)cc4)C3)c2)c1 (stereo not drawn) | 1390 nM |
| Cc1cc(C)c(S(=O)(=O)N2CCCCC(c3cccc(C(F)(F)F)c3)=N2)c(C)c1 | 460 nM |
| Cc1cccc2[nH]c(-c3ccc(-c4ccc(CN5CCN(CC6CCCN(C)C6)CC5)cc4)cc3)nc12 (stereo not drawn) | 140 nM |
| CC[C@H](C)CNC(=O)c1ccnc(-c2cccc(CN(C)C3CCN(C)CC3)c2)c1 | 900 nM |
| FC(F)(F)c1ccc2nc(-c3ccc(-c4ccc(CNCC5CCCO5)cc4)s3)[nH]c2c1 (stereo not drawn) | 160 nM |
| CCC(C)(C)c1ccc(OCCCC(=O)Nc2ccc(Cl)c([N+](=O)[O-])c2)c(C(C)(C)CC)c1 | 970 nM |
| CCn1c(C)c(C)c2cc(C(=O)Nc3ccon3)ccc21 | 730 nM |
| COc1ccc(Nc2ncc3c(-c4ccc(NC(=O)c5cccc(C(F)(F)F)c5)cc4)c[nH]c3n2)cc1OC | 1030 nM |
| O=C(NCCN1CCOCC1)c1ccc(N2CCC(Oc3ccc4ccccc4c3)CC2)nc1 | 760 nM |
| CCN(CC)Cc1cc(Nc2ccnc3cc(Cl)ccc23)ccc1O | 160 nM |
| CC(C)c1ccc(NC(=S)NN=Cc2ccccn2)cc1 | 720 nM |
| CC(C)CC(=O)N1CCNC[C@@H]1C(=O)NCc1ccc(Cl)c(Cl)c1 | 950 nM |
| Cc1[nH]c2cccc(F)c2c(=O)c1Cc1ccc(Cl)cc1 (tested in a mixture with another compound) | 230 nM and 350 nM |
| Cc1cccc2[nH]c(-c3cccc(-c4cccc(CNC(C)C)c4)c3)nc12 | 340 nM |
| CN1CC[C@@H](Oc2cc(CNC(=O)c3ccc(-c4ccc(Cl)cc4)s3)ccc2C(F)(F)F)C1 | 1030 nM |
| Cc1cc(=O)[nH]c(NC#N)n1 | 170 nM |
| COc1ccccc1N1CCN(CCCCN(C(=O)Nc2cccc(Cl)c2)C(=O)Nc2cccc(Cl)c2)CC1 | 710 nM |
| NC(N)=NCCCCN(Cc1ccccc1)c1ccccc1 | 740 nM |
| CN(C)c1ccc(-c2csc(C(=O)NC3CCN(CCC(C)(C)C)C3)c2)cc1 (stereo not drawn) | 970 nM |
| CCNc1cc(C(=O)N[C@@H](Cc2ccccc2)[C@H](O)CNC(C)(C)Cc2ccccc2)cc(N2CCCC2=O)c1 | 260 nM |
| CCN(CC)CC(O)c1cc(-c2ccc(OC)cc2)nc2cc(Cl)ccc12 (stereo not drawn) | 70 nM |
| CCCCc1ccc(S(=O)(=O)Nc2ccc3c(c2)CCN(Cc2c[nH]c4cnccc24)CC3)cc1 | 670 nM |
| CCc1ccc(CN2CCC(C(=O)Nc3ccc(-c4nc5ccccc5[nH]4)cc3)CC2)o1 | 610 nM |
| CCCCN1CCN(CCCCNc2c3ccccc3nc3ccccc23)CC1 | 170 nM |

| SMILES | IC50 |
| --- | --- |
| FC(F)(F)c1ccc2nc(-c3ccc(-c4ccc(CNCc5ccccc5)cc4)cc3)[nH]c2c1 | 140 nM |
| CN(C)CCCNc1c2ccccc2nc2ccccc12 | 1040 nM |
| CCn1ncc2c(NC3CCOCC3)c(CNC(=O)c3ccnn3C)c(C)nc21 | 530 nM |
| O=C(/C=C/c1ccc(Cl)cc1)NCCCCCN1CCN(C(=O)Nc2ccc(Cl)c(C(F)(F)F)c2)CC1 | 920 nM |
| c1ccc2ncc(CNCCCCCCCCNCc3cnc4ccccc4c3)cc2c1 | 850 nM |
| CN(C)C(=O)n1cnc(S(=O)(=O)N(C)c2ccc(Cl)cc2)n1 | 770 nM |
| CC(CN(C)C)C(=O)Nc1ccc(-c2ccc(-c3nc4ccc(F)cc4[nH]3)cc2)cc1 (stereo not drawn) | 770 nM |
| Cc1cc(SC(C)(C)C)cc2c(Cl)c(C(N)=O)cnc12 | 1090 nM |
| COc1ccc(Nc2ncc3c(-c4cccc(NC(=O)CC(C)C)c4)c[nH]c3n2)cc1OC | 830 nM |
| CNCCNCc1ccc(-c2ccc(-c3nc4ccc(C(F)(F)F)cc4[nH]3)cc2)cc1 | 310 nM |
| COc1ccc(-c2ccc(NC(=O)c3ccc(C#N)cc3)cc2)cc1CNC(C)C | 530 nM |
| Cc1ccccc1C(=O)NC(NC(=S)Nc1ccc([N+](=O)[O-])cc1)C(Cl)(Cl)Cl (stereo not drawn) | 740 nM |
| CS(=O)(=O)N1CC2(CCN(CCC(NC(=O)NCc3ccccc3Cl)c3ccc(Cl)c(Cl)c3)CC2)c2ccccc21 (stereo not drawn) | 1110 nM |
| CCc1ccc(CN2CCC(CNC(=O)c3cc(-c4ccccc4Cl)cs3)C2)cc1 (stereo not drawn) | 1430 nM |
| Cc1sc(N2CCN(C)CC2)nc1C(=O)Nc1ccc(F)cc1C(F)(F)F | 1070 nM |
| Cc1nc2c(=O)sc3ccccc3c2n1Cc1ccccc1 | 880 nM |
| COc1cccc2c(O)c(CNC3CCCCC3)ccc12 | 630 nM |
| N#CC1(c2ccccc2)CCN(c2nc(NCCCN3CCCC3=O)nc(N3CCCC4CCCCC43)n2)CC1 (stereo not drawn) | 860 nM |
| CC(=O)CCc1ccc(OCCN(Cc2ccccc2C(F)(F)F)c2ccc(C#N)c(C(F)(F)F)c2)cc1 | 270 nM |
| CC1CN(Cc2ccccc2)CCN1c1ccc(NC(=O)c2ccc(F)cc2)cc1 (stereo not drawn) | 1010 nM |
| CCCC1N=C(N)N=C(N)N1c1ccc(OC)cc1 (stereo not drawn) | 230 nM |
| CC(C)(C)c1ccc(CN2CCCCC(NC(=O)c3cc(-c4ccccc4F)cs3)C2)cc1 (stereo not drawn) | 270 nM |
| COC(=O)c1c(NC(=O)c2cccc(C(F)(F)F)c2)sc2c1CCN(Cc1ccccc1)C2 | 1340 nM |
